# Reference: patent publication US4317775A (Hoffmann-La Roche Inc., priority 1980, dated 1982)
# Where a name gives a salt, the structure may show the parent alone.
# Experiments:
# Salmonella typhosa = experiment: In vitro activity (MIC/MBC), Salmonella typhosa; type: cell-based; conditions: Salmonella enterica; for MBC: read-out: Minimum Inhibitory Concentration (MBC), MBC, Salmonella typhosa; for MIC: read-out: Minimum Inhibitory Concentration (MIC), Salmonella typhosa
# Source text: (§1) MIC is the Minimum Inhibitory Concentration. MBC is the Minimum Bactericidal Concentration.
# (§2) Results reported in Table 3(a) are reported as MIC defined above and results reported in Table 3(b) are reported as MBC defined above.
# E. coli = experiment: In vivo activity against systemic infection in mice, E. coli; conditions: in mg/kg
# Source text: (§3) The PD50 is the protective dose for 50% of the animals treated against a challenge organism.
# in vivo = conditions: mouse
# Escherichia coli = experiment: In vitro activity (MIC/MBC), Escherichia coli; type: cell-based; conditions: for MBC: read-out: Minimum Inhibitory Concentration (MBC); for MIC: read-out: Minimum Inhibitory Concentration (MIC)
# Source text: as §1, §2
# [1] = system: Streptococcus pneumoniae I; experiment: In vitro activity (MIC/MBC), Streptococcus pneumoniae I; type: cell-based; conditions: for MBC: read-out: Minimum Inhibitory Concentration (MBC); for MIC: read-out: Minimum Inhibitory Concentration (MIC)
# Source text: as §1, §2
# S. pyogenes = experiment: In vivo activity against systemic infection in mice, S. pyogenes
# Source text: as §3
# Streptococcus pyogenes = experiment: In vitro activity (MIC/MBC), Streptococcus pyogenes; type: cell-based; conditions: for MBC: read-out: Minimum Inhibitory Concentration (MBC); for MIC: read-out: Minimum Inhibitory Concentration (MIC)
# Source text: as §1, §2
# S. pneumoniae I = experiment: In vivo activity against systemic infection in mice, S. pneumoniae I
# Source text: as §3
# [2] = system: Salmonella schottmuelleri; experiment: In vitro activity (MIC/MBC), Salmonella schottmuelleri; type: cell-based; conditions: for MBC: Salmonella schottmuelleri, read-out: Minimum Inhibitory Concentration (MBC); for MIC: Salmonella, read-out: Minimum Inhibitory Concentration (MIC)
# Source text: as §1, §2
# Klebsiella pneumoniae = experiment: In vitro activity (MIC/MBC), Klebsiella pneumoniae; type: cell-based; conditions: for MBC: read-out: Minimum Inhibitory Concentration (MBC); for MIC: read-out: Minimum Inhibitory Concentration (MIC)
# Source text: as §1, §2
# K. pneumoniae = experiment: In vivo activity against systemic infection in mice, K. pneumoniae; conditions: in mg/kg
# Source text: as §3
# S. schottmuelleri = experiment: In vivo activity against systemic infection in mice, S. schottmuelleri
# Source text: as §3
# Staphylococcus aureus = experiment: In vitro activity (MIC/MBC), Staphylococcus aureus; type: cell-based; conditions: for MBC: read-out: Minimum Inhibitory Concentration (MBC); for MIC: read-out: Minimum Inhibitory Concentration (MIC)
# Source text: as §1, §2
# S. typhosa = experiment: In vivo activity against systemic infection in mice, S. typhosa
# Source text: as §3
# S. aureus = experiment: In vivo activity against systemic infection in mice, S. aureus; conditions: subcutaneous, in mg/kg
# Source text: as §3
# [3] = Stability in aqueous solution (percent retention); type: physicochemical; conditions: for Percent Retention: 6 hrs + 5° C., 192 hrs
# Protocol: The stability of the compound was determined in 0.9% saline solution, 5% aqueous dextrose solution and in water, both at room temperature and/or 5° C.
# [4] = 5% dextrose in water, 2.10 mg/ml, RT
# [5] = 5% dextrose in water, 2.20 mg/ml, 5° C.
# [6] = 5% dextrose in water, 30 mg/ml, RT
# [7] = 5% dextrose in water, 33 mg/ml, 5° C.
# [8] = aqueous concentrate, 155 mg/ml, 5° C.
smiles,measurement,setting,value
"CC1(C)S[C@@H]2[C@H](NC(=O)[C@H](NC3CCCO3)c3ccc(O)cc3)C(=O)N2[C@H]1C(=O)O (relative stereo) [Compound I, {2S-[2α,5α,6β(S*)]}-6-{[2-tetrahydrofuranylamino(4-hydroxyphenyl)acetyl]amino}-3,3-dimethyl-7-oxo-4-thia-1-azabicyclo[3.2.0]heptane-2-carboxylic acid sodium salt]",MBC,Salmonella typhosa,0.35 µg/mL
same,MIC,Salmonella typhosa,0.35 µg/mL
same,PD50,E. coli; oral,23.8
same,PD50,E. coli; subcutaneous,8.2
same,LD50,in vivo; ip,3220 mg/kg
same,LD50,in vivo; po,9100 mg/kg
same,LD50,in vivo; sc,4550 mg/kg
same,MBC,Escherichia coli,5.69 µg/mL
same,MIC,Escherichia coli,5.69 µg/mL
same,MBC,[1],0.022 µg/mL
same,MIC,[1],0.022 µg/mL
same,PD50,S. pyogenes; oral,3.8 mg/kg
same,PD50,S. pyogenes; subcutaneous,7 mg/kg
same,MBC,Streptococcus pyogenes,2.84 µg/mL
same,MIC,Streptococcus pyogenes,0.022 µg/mL
same,PD50,S. pneumoniae I; oral,1.5 mg/kg
same,PD50,S. pneumoniae I; subcutaneous,0.7 mg/kg
same,MBC,[2],1.42 µg/mL
same,MIC,[2],0.71 µg/mL
same,MBC,Klebsiella pneumoniae,0.71 µg/mL
same,MIC,Klebsiella pneumoniae,0.71 µg/mL
same,PD50,K. pneumoniae; oral,9.9
same,PD50,K. pneumoniae; subcutaneous,3.8
same,PD50,S. schottmuelleri; oral,5.4 mg/kg
same,PD50,S. schottmuelleri; subcutaneous,2.4 mg/kg
same,MBC,Staphylococcus aureus,0.177 µg/mL
same,MIC,Staphylococcus aureus,0.177 µg/mL
same,PD50,S. typhosa; oral,8 mg/kg
same,PD50,S. typhosa; subcutaneous,7.3 mg/kg
"CC1(C)S[C@@H]2[C@H](NC(=O)[C@@H](c3ccc(O)cc3)N(C3CCCCO3)C3CCCCO3)C(=O)N2[C@H]1C(=O)O (relative stereo) [Compound II, {2S-[2α,5α,6β(S*)]}-6-[bis(tetrahydro-2-H-pyran-2-yl)amino]{[(4-hydroxyphenyl)acetyl]amino}-3,3-dimethyl-7-oxo-4-thia-1-azabicyclo[3.2.0]heptane3-carboxylic acid sodium salt]",MBC,Salmonella typhosa,0.12 µg/mL
same,MIC,Salmonella typhosa,0.12 µg/mL
same,PD50,E. coli; oral,23
same,PD50,E. coli; subcutaneous,18
same,LD50,in vivo; ip,6310 mg/kg
same,LD50,in vivo; po,> 6310 mg/kg
same,LD50,in vivo; sc,4460 mg/kg
same,MBC,Escherichia coli,3.94 µg/mL
same,MIC,Escherichia coli,3.94 µg/mL
same,MBC,[1],0.049 µg/mL
same,MIC,[1],0.049 µg/mL
same,PD50,S. pyogenes; oral,1.9 mg/kg
same,PD50,S. pyogenes; subcutaneous,3.4 mg/kg
same,MBC,Streptococcus pyogenes,6.31 µg/mL
same,MIC,Streptococcus pyogenes,0.39 µg/mL
same,PD50,S. pneumoniae I; oral,0.7 mg/kg
same,PD50,S. pneumoniae I; subcutaneous,0.7 mg/kg
same,MBC,[2],0.98 µg/mL
same,MIC,[2],0.98 µg/mL
same,MBC,Klebsiella pneumoniae,0.98 µg/mL
same,MIC,Klebsiella pneumoniae,0.09 µg/mL
same,PD50,K. pneumoniae; oral,8.6
same,PD50,K. pneumoniae; subcutaneous,5.7
same,PD50,S. aureus,0.5
same,remaining at 24 h,"[3]; 0.9% saline, 2.20 mg/ml, 5° C.",100%
same,remaining at 48 h,"[3]; 0.9% saline, 2.20 mg/ml, 5° C.",100%
same,remaining at 6 h,"[3]; 0.9% saline, 2.25 mg/ml, RT",96%
same,Percent Retention,"[3]; 0.9% saline, 2.25 mg/ml, RT",98%
same,remaining at 6 h,"[3]; 0.9% saline, 2.30 mg/ml, RT",96%
same,remaining at 24 h,"[3]; 0.9% saline, 2.30 mg/ml, RT",91%
same,remaining at 48 h,"[3]; 0.9% saline, 2.30 mg/ml, RT",84%
same,remaining at 6 h,"[3]; 0.9% saline, 29.1 mg/ml, RT",97%
same,time for which 90% of potency was maintained,"[3]; 0.9% saline, 0.2% solution, 5° C.",≥ 192 h
same,time for which 90% of potency was maintained,"[3]; 0.9% saline, 0.2% solution, room temperature",about 24 hours
same,time for which 90% of potency was maintained,"[3]; 0.9% saline, 3% solution, 5° C.",≥ 192 h
same,time for which 90% of potency was maintained,"[3]; 0.9% saline, 3% solution, room temperature",less than 24 hours
same,remaining at 24 h,"[3]; 0.9% saline, 31. mg/ml, 5° C.",100%
same,remaining at 48 h,"[3]; 0.9% saline, 31. mg/ml, 5° C.",100%
same,remaining at 6 h,"[3]; 0.9% saline, 34. mg/ml, RT",97%
same,remaining at 24 h,"[3]; 0.9% saline, 34. mg/ml, RT",85%
same,remaining at 48 h,"[3]; 0.9% saline, 34. mg/ml, RT",76%
same,Percent Retention,"[3]; 5% Dextrose in Water, 2.10 mg/ml, RT",73%
same,Percent Retention,"[3]; 5% Dextrose in Water, 31 mg/ml, RT",81%
same,remaining at 6 h,[3]; [4],95%
same,remaining at 24 h,[3]; [4],89%
same,remaining at 48 h,[3]; [4],71%
same,remaining at 24 h,[3]; [5],95%
same,remaining at 48 h,[3]; [5],91%
same,remaining at 6 h,[3]; [6],96%
same,remaining at 24 h,[3]; [6],92%
same,remaining at 48 h,[3]; [6],83%
same,remaining at 6 h,"[3]; 5% dextrose in water, 31 mg/ml, RT",100%
same,remaining at 24 h,[3]; [7],94%
same,remaining at 48 h,[3]; [7],84%
same,time for which 90% of potency was maintained,"[3]; 5% dextrose in water, 0.2% solution, 5° C.",48 h
same,time for which 90% of potency was maintained,"[3]; 5% dextrose in water, 0.2% solution, room temperature",about 24 hours
same,time for which 90% of potency was maintained,"[3]; 5% dextrose in water, 3% solution, 5° C.",less than 48 hours
same,time for which 90% of potency was maintained,"[3]; 5% dextrose in water, 3% solution, room temperature",about 24 hours
same,remaining at 24 h,[3]; [8],100%
same,remaining at 48 h,[3]; [8],100%
same,PD50,S. schottmuelleri; oral,1.9 mg/kg
same,PD50,S. schottmuelleri; subcutaneous,5.7 mg/kg
same,MBC,Staphylococcus aureus,0.098 µg/mL
same,MIC,Staphylococcus aureus,0.098 µg/mL
same,PD50,S. typhosa; oral,3.6 mg/kg
same,PD50,S. typhosa; subcutaneous,1.4 mg/kg
